Test [1] deals with HT-1080 tumor homogenates. Description: Fluorogenic response from tumor homogenates (gel electrophoresis). Format: biochemical, mouse. As to the method:
FIG. 4 exemplifies fluorescence enhancement of selective delivery molecule SDM-10 upon cleavage by tumor homogenates. Selective delivery molecule 10 (SDM-10) was cleaved with HT-1080 tumor homogenates. 1 nM MMP-9 or 10 uL tumor tissue homogenates (TH2 and TH3) were mixed with 1 uM […] in 100 uL buffer for 24 h at 37° C. GM6001 is a general broad spectrum inhibitor of MMPs. […] Uncleaved SDM-10 is nonfluorescent due to efficient quenching (second column from left).
HT1080 cells (Cat. # CCL-121; American Type Culture Collection, Va., USA) were grown under exponential growth conditions in humidified atmosphere of 5% CO2 in air at 37° C. until reaching 80-100% confluence before harvesting for mouse implantation. Each nude mouse was hand restrained and injected with 2×10^6 HT-1080 cells into the mammary fat pad using a 25-G needle. HT-1080 tumors were harvested when they had reached 100-200 mm^3 in size (typically 1-2 weeks post-tumor cells implantation).
HT-1080 tumors were homogenized using ultrasonic disruption. 1 nM MMP-9 or 10 μl, tumor tissue homogenates (TH2 and TH3) were mixed with 1 μM SDM-10 in 100 μL buffer for 24 h at 37° C. Selective delivery molecule 6 was used as a fluorescent control of similar size to intact SDM-10. The samples were loaded on a polyacrylamide gel and separated using electrophoresis. […] GM6001 is a general broad spectrum inhibitor of MMPs.

The target of test [2] is T1, matrix metalloproteinase-2 (MMP-2) (Homo sapiens, UniProt P08253).
T1 sequence (P08253 110-660): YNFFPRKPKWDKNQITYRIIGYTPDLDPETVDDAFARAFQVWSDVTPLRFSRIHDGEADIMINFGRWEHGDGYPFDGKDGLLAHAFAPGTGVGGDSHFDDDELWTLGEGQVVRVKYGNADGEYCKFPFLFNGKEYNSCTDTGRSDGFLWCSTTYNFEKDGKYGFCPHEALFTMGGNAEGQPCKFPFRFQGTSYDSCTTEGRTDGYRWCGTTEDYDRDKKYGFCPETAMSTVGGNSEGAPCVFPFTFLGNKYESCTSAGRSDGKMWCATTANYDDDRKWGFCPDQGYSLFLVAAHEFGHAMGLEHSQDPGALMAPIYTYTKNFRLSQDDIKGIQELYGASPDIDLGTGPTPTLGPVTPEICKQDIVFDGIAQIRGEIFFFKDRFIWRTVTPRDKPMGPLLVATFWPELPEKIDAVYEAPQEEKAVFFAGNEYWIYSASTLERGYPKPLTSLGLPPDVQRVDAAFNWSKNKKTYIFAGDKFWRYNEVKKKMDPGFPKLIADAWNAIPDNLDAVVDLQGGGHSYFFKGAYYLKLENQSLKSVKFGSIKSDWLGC
The test can be described thus: Enzyme dependent fluorescence enhancement and color change: cleavage of FRET SDM by MMP-2. It counts as biochemical. The settings on record: 1 μM SDM. How it is done:
FIG. 2 exemplifies ratiometric fluorescence changes of selective delivery molecules. In this figure, SDM-9 was cleaved with 1 nM MMP-2 enzyme. The increase of donor (left panel) and decrease in acceptor (right panel) fluorescence is indicative of decreased FRET after peptide cleavage.
Selective delivery molecule 9 was dissolved in TCNB buffer (50 mM Tris, pH 7.5, with 10 mM calcium chloride, 150 mM sodium chloride, and 0.05% BRIJ 35) at room temperature at 1 μM. Fluorescence spectra were recorded on F-2500 fluorescence spectrometer. The Cy5 fluorescence donor was excited using 625 nm light and the emission was scanned from 660 to 800 nm. Peptide cleavage was initiated with addition of matrix metalloproteinase-2 (MMP-2) at a final concentration of 1 nM. The cleavage reaction was complete within 2 hour and the fluorescence spectra indicated FRET disruption and a large 8-fold increase the Cy5 donor emission and 2-fold decrease in the Cy7 emission. The actual intrinsic fluorescence decrease of Cy7 is larger however it is masked by the Cy5 long wavelength shoulder.

For test [3], the system named is Murine 4T1 tumor model, metastatic cervical lymph nodes. Description: In vivo detection of cancer metastases to lymph node, emission ratio contrast. More on the design: species or system mouse. The settings on record: metastatic vs non-metastatic lymph nodes, peritumoral administration.
The test system of the next test is HT-1080 xenograft model. The test can be described thus: In vivo imaging assay for tumor contrast. Further details: species or system mouse. How it is done: HT-1080 xenograft model was generated as described in Example 14 and used to evaluate the ability of molecules to provide in vivo tumor fluorescence contrast compared to surrounding tissue. Fluorescent conjugates were tested in HT-1080 tumor-bearing mice once the tumors had reached 100-200 mm^3 in size (typically 1-2 weeks post-tumor cells implantation). Conscious HT-1080 tumor-bearing mice were restrained using a rotating tail injector (Cat. # RTI; Braintree Scientific, MA, USA) and dosed intravenously (tail vein) with the test compound at between 0.1 and 5 nanomoles per mouse in 100 uL saline solution. In preparation for imaging, mice were lightly anesthetized with a mixture of ketamine/xylazine (Cat. # K-113; Sigma, Aldrich, Mo., USA) given intraperitoneally (1 μL/gram body weight) to minimize movement.
Serial whole-body imaging (tumor included) was done using a whole-animal fluorescent visualization imaging system or Olympus stereo fluorescent microscope. The mice were positioned on their backs and imaging was performed from the top to image the ventral side of the animal. […] Contrast was calculated using the following equation: Contrast=(Fluorescence intensity of tumor−Fluorescence intensity of contralateral chest tissue)/Intensity of contralateral chest tissue).
Contrast greater than 0.4 in the whole animal is easily detected by eye in the whole animal image and is good contrast. […]

The next test deals with MMP-9 (Homo sapiens, UniProt P14780). Description: Enzyme dependent fluorescence enhancement: cleavage of quenched SDM by MMP-9. The settings on record: 1 μM SDM. It counts as biochemical. How it is done:
FIG. 3 exemplifies fluorescence enhancement of selective delivery molecules after protease cleavage. SDM-10 was cleaved with 1 nM MMP-9 enzyme in buffered saline. The Cy5 fluorescence increases >100 fold after peptide cleavage because the quencher dyes is no longer intramolecularly attached to Cy5 and it can no longer efficiently quench Cy5.
Selective delivery molecule 10 was dissolved in TCNB buffer (pH 7.5) at room temperature at 1 μM. Fluorescence spectra were recorded on F-2500 fluorescence spectrometer. Excitation of the Cy5 fluorescence donor was excited at 625 nm and the emission was measured at 669 nm. Peptide cleavage was initiated with addition of MMP-9 at a final concentration of 1 nM. The cleavage reaction was complete within 2 hour and the fluorescence was enhanced >100-fold upon protease cleavage, FIG. 3.

Setting [4] is: 1 nM MMP-2, TCNB buffer pH 7.5, excitation 625 nm.

Numbered stars: 1 amine (or outer) side, 2 acyl side, 3 side chain; on linkers, the order of the positions; unused ones are H or OH. Square brackets hold non-standard residues; d marks the D form. Ends that are not written are not given here. Cys(Me) = S-methyl-cysteine, CSC[C@H](N[*:1])C(=O)[*:2]; Phe(4-Ac) = CC(=O)c1ccc(C[C@H](N)C(=O)O)cc1; AEA = NCCOCC(=O)O A value given as a limit tells only on which side of the number the result lay.

MMP-9, sequence (P14780 94-707): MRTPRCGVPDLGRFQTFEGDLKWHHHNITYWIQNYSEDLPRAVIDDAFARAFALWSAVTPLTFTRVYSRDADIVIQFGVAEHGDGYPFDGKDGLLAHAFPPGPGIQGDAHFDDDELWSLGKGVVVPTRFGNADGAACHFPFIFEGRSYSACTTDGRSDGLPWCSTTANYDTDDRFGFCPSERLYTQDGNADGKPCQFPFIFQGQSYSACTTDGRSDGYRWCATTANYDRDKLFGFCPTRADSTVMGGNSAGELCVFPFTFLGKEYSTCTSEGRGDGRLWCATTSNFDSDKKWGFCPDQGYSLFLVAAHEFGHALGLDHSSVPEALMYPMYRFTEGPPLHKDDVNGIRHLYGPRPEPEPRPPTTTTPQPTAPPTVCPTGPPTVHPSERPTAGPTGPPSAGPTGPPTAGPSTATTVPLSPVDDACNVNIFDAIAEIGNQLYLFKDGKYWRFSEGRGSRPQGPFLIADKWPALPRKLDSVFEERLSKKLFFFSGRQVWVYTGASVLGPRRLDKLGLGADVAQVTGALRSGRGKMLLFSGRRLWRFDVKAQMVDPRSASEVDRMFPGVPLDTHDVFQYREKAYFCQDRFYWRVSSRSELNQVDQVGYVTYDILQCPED

As for `CNC(=O)[C@H](Cc1c[nH]c2ccccc12)NC(=O)[C@@H](CC(=O)NO)CC(C)C` [GM6001, reference compound], in test [1] (MMP inhibitor added to HT-1080 homogenate with SDM-10), the “effect on tumor homogenate cleavage of SDM-10” value is listed as “inhibits cleavage”.
Consider “SDM-9: prepared analogously to SDM-25 from peptide P-3; Cy5 donor and Cy7 FRET acceptor ([dE][dE][dE][dE][dE][Phe(4-Ac)][AEA]PLG[Cys(Me)]AG[dR][dR][dR][dR][dR][dR][dR][dR][dC]-NH2; not fully specified (some residues, N-terminus))”, for which, in test [2] (setting [4]), the “decrease in Cy7 emission after cleavage” value stood at 2 fold and the “increase in Cy5 donor emission after cleavage” value worked out at 8 fold. Besides, the “time to complete cleavage reaction” value in test [2] (1 nM MMP-2, room temperature) is no more than 2 h. Also, the “Peritumor Maximum Contrast” value in test [3] is “Low (Low <20%)”. The “Time to maximum contrast” value in the test on HT-1080 xenograft model (HT-1080 xenograft, IV dosing) is “Fast (4 < fast < 12)”. The “Maximum Contrast” value in the test on HT-1080 xenograft model (tumor vs contralateral chest tissue fluorescence, IV 0.1-5 nanomoles per mouse, imaged 1-24 hours after injection) is recorded as “High (≥0.9 = high)”.
Regarding “SDM-10: prepared analogously to SDM-25 from peptide P-3; Cy5 fluorophore with dye quencher ([dE][dE][dE][dE][dE][Phe(4-Ac)][AEA]PLG[Cys(Me)]AG[dR][dR][dR][dR][dR][dR][dR][dR][dC]-NH2; numbers in words are those of the source; also: Cy5 fluorophore, quencher dye and mPEG carrier attached, sites not given here)”, in test [1] (1 μM SDM, 10 μL homogenate in 100 μL buffer, 24 h, 37° C.), the “cleavage by HT-1080 tumor homogenates” value was “cleaved and becomes highly fluorescent”. Also, the “fluorescence of intact, uncleaved form on gel” value in test [1] (polyacrylamide gel) was “essentially non-fluorescent”. For the same molecule, in the test with MMP-9 (1 nM MMP-9, excitation 625 nm, emission 669 nm), the “Cy5 fluorescence enhancement upon protease cleavage” value is greater than 100 fold. Further, the “time to complete cleavage reaction” value with MMP-9 (1 nM MMP-9, room temperature) was no more than 2 h.

The values above are taken from patent publication US10570178B2, “Selective delivery molecules and methods of use” (Avelas Biosciences, Inc., priority 2011, dated 2020).
